Data published in patent US20130209366A1, “Glutathione-Lanthionine Compounds and Methods Related Thereto” (OKLAHOMA MEDICAL RESEARCH FOUNDATION, priority 2010, published 2013).
Marks after values point to notes of the source that are not given here.

How the values were obtained:
syntaptosomal membranes = conditions: cited from earlier work
HT-4 neurons = conditions: cited from earlier work
[1] = test system: TNFα or LPS-treated microglia and macrophages; conditions: cited from earlier work
[2] = test system: NSC-34 motor neuron-like cells; conditions: NSC-34 cells; cited from earlier work
SOD1G93A mutant mice = assay: Onset of paralysis and survival in SOD1G93A mouse model of familial ALS; format: in vivo; conditions: for age at death (d) mean / onset of paralysis (d) mean: 5 days/week from 90d
Experimental: Additional studies to explore effects of LKE in vivo, as a pharmacological candidate were conducted in a murine model for the motoneuron disease amyotrophic lateral sclerosis (ALS). In a first effort to assess LKE effects against a model of spontaneous neurodegeneration, SOD1G93A mutant mice modeling familial ALS [27-28] were treated with intraperitoneal (i.p.) injections of 100 mg/kg/d LKE in saline vehicle, from 90d throughout the remaining mouse lifespan. LKE is relevant to test in this mouse because the SOD1G93A mouse experiences robust neuroinflammation concomitant with TNFα-driven microglial activation, oxidative stress, and significant progressive distal axonopathy, all of which might be expected to be mitigated by LKE based on the ester's observed effects in cell culture. Mouse motor function was assessed as previously described using a standard rotarod test, at sequential 10d intervals (FIG. 6). Specific groups of mice were treated with LKE in saline or saline vehicle only. […] Overall survival was increased by LKE based on logrank analysis (Table I).
(§1) Mice were injected with synthetic gLan in saline at 50-200 mg/kg/d, five days per week (Monday-Friday) beginning at 90d of age. Mice were assessed at baseline and every 10d for motor functional ability using the rotarod task as described previously.
Motor function dropped off rapidly amongst all groups at ages >110 d (FIG. 8). As in the case of LKE treatment, chronic intraperitoneal gLan at 100-200 mg/kg/dose tended to increase the age at which onset-of-paralysis was observed (based on a leg-clinch test) and the mean age of death of the SOD1G93A mice (Table II). When motor performance curves were interpolated to estimate the age at which mice lost an average 50% of baseline motor function, the 100 mg/kg/dose gLan treatment group reached this clinical endpoint approximately 18d later than the vehicle-treated group (FIG. 8).

SOD1G93A mice = assay: Rotarod motor function in SOD1G93A mice; format: in vivo, mouse
Experimental: FIG. 8. […] Mice were treated with daily intraperitoneal injections of gLan, at the indicated dose, 5 days/week beginning at 90 d, and motor performance was evaluated by rotarod task as described in the examples.
Additional studies to explore effects of LKE in vivo, as a pharmacological candidate were conducted in a murine model for the motoneuron disease amyotrophic lateral sclerosis (ALS). In a first effort to assess LKE effects against a model of spontaneous neurodegeneration, SOD1G93A mutant mice modeling familial ALS [27-28] were treated with intraperitoneal (i.p.) injections of 100 mg/kg/d LKE in saline vehicle, from 90d throughout the remaining mouse lifespan. LKE is relevant to test in this mouse because the SOD1G93A mouse experiences robust neuroinflammation concomitant with TNFα-driven microglial activation, oxidative stress, and significant progressive distal axonopathy, all of which might be expected to be mitigated by LKE based on the ester's observed effects in cell culture. Mouse motor function was assessed as previously described using a standard rotarod test, at sequential 10d intervals (FIG. 6). Specific groups of mice were treated with LKE in saline or saline vehicle only.
as §1

NSC-34 cells = conditions: cited from earlier work
[3] = test system: primary dissociated chick dorsal root ganglia (DRG) cultures; assay: Neurite length in primary dissociated chick dorsal root ganglia cultures; format: cell-based; conditions: 100 μM, treated at 2-3 DIV, 24 h
Experimental: FIG. 5. LK-5-ethyl ester (LKE) promotes neurite extension in primary, dissociated chick dorsal root ganglia cell cultures. Neurons were treated with LKE or saline vehicle for 24 h from DIV2-3 and quantitatively assessed for neurite morphometry as described in the text.
Cell culture studies were performed to assess LKE effects on neuritigenesis in primary dissociated chick dorsal root ganglia (DRG) cultures prepared essentially as described by Margiotta and Howard. Cultures were treated with LKE at 2-3 days in vitro (DIV), and neuron morphometry was quantified from bright field micrographs by a blinded observer using Metamorph® software (Molecular Devices, Sunnyvale Calif. USA).

[4] = 100 mg/kg/d i.p. in saline from 90d, N = 15

For `O=C(O)C1=NC(C(=O)O)CSC1` (centres unmarked) [LK, 2H-1,4-thiazine-5,6-dihydro-3,5-dicarboxylic acid], the Kd (syntaptosomal membranes; saturable, reversible with cold LK, read-out: Kd of [35S]LK binding to synaptosomal membranes) is listed as 58 nM, the “protection against toxicity of high-dose glutamate” value (HT-4 neurons) is listed as “protected” and the nitric oxide synthesis [1] is listed as “suppressed”.

In the case of `CCOC(=O)C1CSCC(C(=O)O)=N1` (centres unmarked) [LKE, LK-5-ethyl ester], the “protection against toxicity of high-dose glutamate” value (HT-4 neurons) is listed as “protected”, the “protection from toxicity of hydrogen peroxide (H2O2)” value [2] is listed as “protected” and the “protection from toxicity of microglia-conditioned medium” value [2] is listed as “protected”. The overall survival (SOD1G93A mutant mice; 100 mg/kg/d i.p. from 90d, logrank analysis) was “increased”, the “maximum age at death” value (SOD1G93A mutant mice; [4]) was 152 days and the “median age at death (d)” value (SOD1G93A mutant mice; [4]) was 139† d. The “minimum age at death” value (SOD1G93A mutant mice; [4]) was 124 days, the “age of frank paralysis” value (SOD1G93A mutant mice; 100 mg/kg/d i.p. in saline from 90d, mean ± SEM, N = 15) was 121.6 ± 2.5 days and the nitric oxide synthesis [1] was “suppressed”. The “progression of clinical motoneuron disease” value (SOD1G93A mice; 100 mg/kg/d i.p. from 90d, rotarod and leg-splay test) was “significantly slowed”, the “growth factor-stimulated outgrowth of neurites” value (NSC-34 cells) was “promoted” and the “mean neurite length of dissociated DRG neurons” value [3] was “significantly increased”.

With `NC(CSC[C@H](NC(=O)CC[C@H](N)C(=O)O)C(=O)NCC(=O)O)C(=O)O` (some centres unmarked) [gLan, γGlu-Cys(S-Ala)-Gly] the “age at death (d) mean” value (SOD1G93A mutant mice; gLan 50 mg/kg daily i.p.) was 126.7 days, the “onset of paralysis (d) mean” value (SOD1G93A mutant mice; gLan 50 mg/kg daily i.p.) was 111.6 days and the “age at death (d) mean” value (SOD1G93A mutant mice; gLan 100 mg/kg daily i.p.) was 138.3 days. For the same compound, the “onset of paralysis (d) mean” value (SOD1G93A mutant mice; gLan 100 mg/kg daily i.p.) was 123.8 days, the “age at death (d) mean” value (SOD1G93A mutant mice; gLan 200 mg/kg daily i.p.) was 133.1 days and the “onset of paralysis (d) mean” value (SOD1G93A mutant mice; gLan 200 mg/kg daily i.p.) was 116.7 days. For the same compound, the “delay versus vehicle of the age at which mice lost an average 50% of baseline motor function” value (SOD1G93A mice; 100 mg/kg/dose, interpolated from motor performance curves) was “approximately 18 d”, the “motor function (rotarod)” value (SOD1G93A mice; 50-200 mg/kg/d, up to 110d or 120d, 100 mg/kg optimum, p<0.01 repeated measures ANOVA) was “dose-dependently improved” and the “average rotarod performance at 100d and 110d versus 90d baseline” value (SOD1G93A mice; 100-200 mg/kg/d) was “improved above the 90d baseline value”. The “motor function relative to saline treated control animals” value (SOD1G93A mice; 100-200 mg/kg/d, ages <120d) was “twice”.

In the case of `O=C(O)C1CSCC(C(=O)O)N1` (centres unmarked) [reduced LK, thiomorpholine dicarboxylic acid], the “displacement of [35S]LK” value (syntaptosomal membranes) is listed as “could not displace”.
